Like-named read-outs stand apart in the source and are kept apart here. Values belong to the molecule of their own block, whether it stands above or below them.
Legend:
[1] = tested on: rat liver microsome; experiment: Formation of lipid peroxide in vitro in rat liver microsome (TBA method); format: biochemical
Method: Lipid peroxide was produced in vitro by using rat liver microsome. The microsome was prepared in a usual method from rat starved for 24 hours, and the final concentration thereof was adjusted to 15 - 18 mg proteins/ml.
To the thus prepared microsome was added Fe(N03)3, ADP (adenosine diphosphate), NADPH (nicotinamide adenine dinucleotide phosphate), glucose 6-phosphate and glucose 6-phosphate dehydrogenase so that the final concentrations of these additives were 200 uM, 7 mM, 7.5 mM, 20 mM and 2.0 U.I., respectively.
The resultant mixture was incubated at 37°C to produce the lipid peroxide. The activity of compound No. 1 and vitamin E to inhibit the formation of the lipid peroxide was measured. The quantity of the lipid peroxide was determined in accordance with TBA method (thiobarbiturate method, "Biochemical Medicine", Vol. 15, p. 212 (1976)) and expressed in terms of MDA (malon dialdehyde) amount (nmol) in 1 mg of protein.

[2] = tested on: isolated hepatocytes; experiment: Formation of lipid peroxide in isolated hepatocytes after addition of carbon tetrachloride; format: cell-based, rat; details: Concentration 10 µM, carbon tetrachloride 5 mM; for inhibition at 10 µM: Rattus norvegicus, Hepatocyte, 3 hours, read-out: Free MDA (3 hours) % Inhibition
Method: Lipid peroxide was produced in vitro in cell membranes by using hepatocytes isolated by means of collagenase.
The isolated hepatocytes were prepared by the method of collagenase perfusion from the liver of rat which was fed for one week with phenobarbital in drinking water. The isolated hepatocytes (1 x 10^6 cells/ml Hanks solution containing 1 % BSA and 10 mM HEPES, pH 7.4) were taken into a conical flask in which test compounds were placed. Then, the cells were incubated at 37°C and produced the lipid peroxide by the addition of carbon tetrachloride (5 mM).
The activity of the compounds shown in Table I and vitamin E to inhbit the formation of the lipid peroxide was measured. The amount of the lipid peroxide was determined in accordance with the method of Mihara et al. (Yakugaku Zasshi; Journal of the Pharmaceutical Society of Japan, Vol. 102, No. 7, 670-677 (1982)) and expressed in terms of inhibition rate (%) of the formation of lipid peroxide after the addition of carbon tetrachloride.

[3] = tested on: liver of the carbon tetrachloride-treated rat; experiment: Lipid peroxide in the liver of carbon tetrachloride-treated rat, oral administration; format: in vivo; details: 24 hours after CCl4
Method: The lipid peroxide in the liver of the rat treated with CC14 increases. Carbon tetrachloride of 25 % V/V in olive oil was administered orally to rats by the dose of 2 ml/kg. After 24 hours, the amount of the lipid peroxide in the liver of the carbon tetrachloride-treated rat was increased to approx. 6 times higher than untreated rat. The amount of the lipid peroxide was determined by the method of Mihara et al. as in Example 3 and was expressed in terms of MDA amount (nmol) in 1 g of liver. The activity of compound No. 1 and vitamin E to inhibit the formation of the lipid peroxide was measured. Compound No. 1 was orally administered to the carbon tetrachloride-treated rat in the form of suspension in the surfactant "Tween 80" by the amount of 25, 50 or 100 mg/kg/day nine days before the treatment of carbon tetrachloride.

[4] = tested on: rat polymorphonuclear leukocytes (PMN); experiment: Production of O2- by polymorphonuclear leukocytes stimulated with PMA (cytochrome C reduction); format: cell-based; details: Leukocyte, PMA 125 ng/ml; for inhibition at 3.3 µM: Conc. 3.3 µM; for inhibition at 10 µM: Conc. 10.0 µM; for inhibition at 33 µM: Conc. 33.0 µM
Method: In 20 hours after injection of 10 ml of 1 % casein into the abdominal cavity of a […], many polymorphonuclear leukocytes appear in the cavity. An activity of the polymorphonuclear leukocytes can be determined in an in vitro system. Briefly stated, addition of phorbol myristate acetate, PMA, as a stimulant into a test tube containing a buffer and the polymorphonuclear leukocytes induces the production of O2^- by the polymorphonuclear leukocytes. […] See Wei Hsueh et al., Nature, 290 (23), 710-713 (1981).
Thus, measurements were carried out using rat polymorphonuclear leukocytes (PMN) induced by 1 % casein and PMA (phorbol-12-myristate-13-acetate) as a stimulant. First, 1,830 µl of phosphate buffer, pH 7,4, 50 µl of cytochrome C (Cyt C) in BSA, 20 µl of a sample (compound) and 50 µl of PMN were stirred at 37°C. After adding 50 µl of PMA to a final concentration of 125 ng/ml, the change of Cyt C reduction was traced by an absorption at 550 nm. The number of PMN per tube was 2 x 10^6 cells.

[5] = tested on: Mast cells; experiment: Histamine release from mast cells stimulated with compound 48/80 or ascarid protein; format: cell-based, male Wistar rats; details: compound 48/80 and protein from epidermis of ascarid as stimulants
Method: Histamine release can be experimentally investigated in vitro with use of mast cells derived from rat's abdominal cavity. Thus, after the mast cells are pre-incubated in the presence of an IgE antibody, e.g. IgE antibody prepared by sensitization of rabbit with a protein derived from the epidermis of ascarid, addition of a corresponding IgE antigen, e.g. the protein prepared from the epidermis of ascarid, induces the release of histamine from the mast cells. Such release of histamine can also be induced by addition of an artificial stimulant compound 48/80, ATP (adenosine triphosphate) to mast cells.
Mast cells were collected from the abdominal cavity of male Wistar rats of 400 - 450 g in body weight in a conventional manner. After pre-incubation of 5 x 10^4 cells in Krebs-Ringer buffer, pH 7.4, for 10 minutes, 0,1 µg/ml of the compound 48/80 was added. After incubation for an additional 10 minutes, the cells were removed by centrifugation at 3,000 rpm for 5 minutes. Thereafter, histamine in the supernatant was quantitatively measured according to Shore's method described in J. Phar. […] As a control, total amount of histamine contained in mast cell was measured. A ratio of the amount of histamine released after the treatment with the compound 48/80 as a stimulant to the total amount of histamine as the control was calculated according to the following equation : [formula]

[6] = Plasma concentration (AUC) after oral administration to beagle dogs, after fast or after diet; format: in vivo; details: male, dog, 200 mg/kg, 30 minutes after diet, dogs No. 1-5 and mean in last row, read-out: AUC of tritoqualine concentration in blood for 5 hours
Method: Tritoqualine was orally administered to male beagle dogs, […], body weight of 9.5 - 12 kg, Hazleton, after fast or 30 minutes after diet in a dose of 200 mg/kg.
Tritoqualine had been subjected to micronization by a jet mill PJM-100NP, NIHON NEWMATIC KOGYO KK, JAPAN (10 % or more of 3 microns or less, 80 % of 3-15 microns and 10 % or less of 15 microns or more; average of 7 microns) or a screen of 100 mesh under. The obtained particles were suspended in aqueous 1 % Tween 80 solution before use. […]
Before the administration, and 0.5, 1, 2, 3 and 5 hours after the administration, 1 ml of blood was taken out of the vein of front leg, placed into a BHA-coated centrifugal tube "VENOJECT" containing heparin, TERMO INC., and centrifuged. Hundred microliters of the thus obtained plasma was placed into a small glass test tube, which had been coated with 1 microgram of BHA. Into the tube were added 190 microliters of noscapine (100 micrograms in ml of acetonitrile) as an internal standard and 10 microliters of acetonitrile. After blending for one minute, the mixture was centrifuged at 3,000 rpm for 5 minutes. The resulting supernatant was subjected to HPLC under the conditions described below.
The quantitative measurements of tritoqualine in the plasma were carried out according to the internal standard method. The area under curve (AUC) was calculated by the trapezoidal rule. […]

[7] = tested on: patients suffering from chronic hepatitis; experiment: Clinical investigation in chronic hepatitis, oral administration for 8 weeks after every diet; format: in vivo; details: for improvement of liver functions (patients): 8 weeks
Method: To patients suffering from chronic hepatitis tritoqualine was administered orally for 8 weeks continuously in a daily dose of 150 or 300 mg after every diet.
Glutamate oxaloacetate transaminase (GOT) and glutamate pyruvate transaminase (GPT) were measured just before the first administration, and 4 and 8 weeks after the first administration.
During the above investigations, there were few cases where slight side effects such as dizziness and nausea, which were suspected to have a relation with the administered drug, appeared : in one case among 65 cases administered in a dose of 150 mg, i.e. 1.5 %; and 8 cases among 137 cases in a dose of 300 mg, i.e. 5.8 %.
When tritoqualine was administered in a dose of 600 mg in the same manner as described above, side effects appeared in 24 cases among 164 cases, i.e. 14.6 %.

[8] = tested on: patients with chronic active hepatitis; details: daily dosages 600 to 1600 mg, 13 patients; particularly at 1200-1600 mg/day; cited from earlier work
[9] = 10 µM, Incubation Period 10 min
[10] = 100 µM, Incubation Period 5 min
[11] = 100 µM, Incubation Period 10 min

Molecule: CCOc1c(N)c2c(c(OCC)c1OCC)C(C1c3c(cc4c(c3OC)OCO4)CCN1C)OC2=O (stereo not drawn) [Compound No. 1, 7-amino-4,5,6-triethoxy-3-(5,6,7,8-tetrahydro-4-methoxy-6-methyl-1,3-dioxolo(4,5-g)isoquinolin-5-yl)phthalide]
MDA Amount Produced ([1]; 3.3 µM, Incubation Period 5 min): 1.80 ± 0.12 nmol/mg of protein
MDA Amount Produced ([1]; 3.3 µM, Incubation Period 10 min): 2.25 ± 0.21 nmol/mg of protein
MDA Amount Produced ([1]; 10 µM, Incubation Period 5 min): 1.71 ± 0.12 nmol/mg of protein
MDA Amount Produced [1, 9]: 1.80 ± 0.06 nmol/mg of protein
MDA Amount Produced ([1]; 33 µM, Incubation Period 5 min): 1.50 ± 0.05 nmol/mg of protein
MDA Amount Produced ([1]; 33 µM, Incubation Period 10 min): 1.62 ± 0.02 nmol/mg of protein
MDA Amount Produced [1, 10]: 1.37 ± 0.02 nmol/mg of protein
MDA Amount Produced [1, 11]: 1.37 ± 0.05 nmol/mg of protein
inhibition at 10 µM [2]: 77.3%
MDA Amount Produced ([3]; 25 mg/kg oral): 333.0 ± 54.3 nmol/g of liver
MDA Amount Produced ([3]; 50 mg/kg oral): 328.5 ± 50.8 nmol/g of liver
MDA Amount Produced ([3]; 100 mg/kg oral): 171.0 ± 23.6 nmol/g of liver
inhibition at 3.3 µM [4]: 15.4%
inhibition at 10 µM [4]: 53.9%
inhibition at 33 µM [4]: 58.8%
IC50 [4]: 15.9 µM
inhibiting activity to the histamine release [5]: strong inhibiting activity

Molecule: COc1ccc2c(c1OC)C(=O)OC2C1c2c(cc3c(c2OC)OCO3)CCN1C (stereo not drawn) [compound 2]
inhibition at 10 µM [2]: 42.4%

Molecule: CCOc1c(OCC)c2c(c([N+](=O)[O-])c1OCC)C(=O)OC2C1c2c(cc3c(c2OC)OCO3)CCN1C (stereo not drawn) [compound 4]
inhibition at 10 µM [2]: 28.6%

Molecule: Vitamin E [reference compound]
MDA Amount Produced [1, 9]: 2.37 ± 0.21 nmol/mg of protein
MDA Amount Produced [1, 10]: 2.06 ± 0.001 nmol/mg of protein
MDA Amount Produced [1, 11]: 2.62 ± 0.07 nmol/mg of protein
MDA Amount Produced ([1]; 1000 µM, Incubation Period 5 min): 2.06 ± 0.016 nmol/mg of protein
MDA Amount Produced ([1]; 1000 µM, Incubation Period 10 min): 2.29 ± 0.14 nmol/mg of protein
Free MDA (3 hours) % Inhibition [2]: 13%
MDA Amount Produced ([3]; 50 mg/kg oral): 104.0 ± 18.4 nmol/g of liver

More lines, main results first:

IC50 [4]: 7.2 µM
Molecule: CCOc1c(N)c2c(c(OCC)c1OCC)C(C1c3c(cc(OC)c4c3OCO4)CCN1C)OC2=O (stereo not drawn) [compound 3]
inhibition at 10 µM [2]: 76.9%
inhibition at 3.3 µM [4]: 34.9%
inhibition at 10 µM [4]: 59.9%
inhibition at 33 µM [4]: 66.2%
inhibiting activity to the histamine release [5]: strong inhibiting activity

IC50 [4]: 1.8 µM
Molecule: CCOc1c(N)c2c(c(OCC)c1OCC)C(C1c3c(cc4c(c3OC)OCO4)CCN1CC)OC2=O (stereo not drawn) [compound 5, 2-ethyl-6,7-methylenedioxy-8-methoxy-1-(4,5,6-triethxy-7-amino-3-phthalidyl)-1,2,3,4-tetrahydroisoquinoline]
inhibition at 10 µM [2]: 68.6%
inhibition at 3.3 µM [4]: 49.2%
inhibition at 10 µM [4]: 65.8%
inhibition at 33 µM [4]: 60.3%

IC50 [4]: 45.1 µM
Molecule: CCOc1c(N)c2c(c(OCC)c1OCC)C(C1c3cc(OC)c(OC)cc3CCN1C)OC2=O (stereo not drawn) [compound 6]
inhibition at 10 µM [2]: 47.6%
inhibition at 3.3 µM [4]: 0.9%
inhibition at 10 µM [4]: 14%
inhibition at 33 µM [4]: 41.1%

AUC ([6]; 100 mesh under 200 mg/kg oral): 187 ng·h/mL
AUC ([6]; Micronisation 200 mg/kg oral): 674 ng·h/mL
Molecule: CCOc1c(N)c2c(c(OCC)c1OCC)C(C1c3c(cc4c(c3OC)OCO4)CCN1C)OC2=O (stereo not drawn) [tritoqualine, 7-amino-4,5,6-triethoxy-3-(5,6,7,8-tetrahydro-4-methoxy-6-methyl-1,3-dioxolo(4,5-g)isoquinolin-5-yl)phthalide]
improvement of liver functions (patients) ([7]; daily dose 150 mg oral, 27 among 62 patients): 44.3%
improvement of liver functions (patients) ([7]; daily dose 300 mg oral, 79 among 135 patients): 61.2%
side effects such as dizziness and nausea (cases) ([7]; dose of 150 mg, one case among 65 cases): 1.5%
side effects such as dizziness and nausea (cases) ([7]; dose of 300 mg, 8 cases among 137 cases): 5.8%
side effects (cases) ([7]; dose of 600 mg, 24 cases among 164 cases): 14.6%
fibrosis with cellular infiltration on biopsied liver specimens [8]: reduction of fibrosis
liver functions [8]: marked improvement

From EP0201359A2, “Use of phthalide isoquinoline derivatives for treatments inhibiting the formation of lipid peroxides” (MITSUBISHI KASEI CORPORATION, priority 1985, dated 1986)
